Source: PubChem BioAssay (NCI)
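The compound was tested at five concentrations on cells cultured in 96-well plates, with a 48-hour exposure period. At the GI50, growth is halved. TGI marks complete inhibition of growth.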

Columns and labels:
Assay in all cases: NCI tumour cell line growth inhibition, 48 h
EKVX NSCLC = tested on: EKVX NSCLC
OVCAR-5 ovarian = tested on: OVCAR-5 ovarian
NCI-H23 lung = tested on: NCI-H23 lung
HCT-116 colon = tested on: HCT-116 colon
CAKI-1 renal = tested on: CAKI-1 renal
NCI-H460 lung = tested on: NCI-H460 lung
SK-MEL-28 melanoma = tested on: SK-MEL-28 melanoma
SK-OV-3 ovarian = tested on: SK-OV-3 ovarian
HCC-2998 colon = tested on: HCC-2998 colon
RPMI-8226 leukemia = tested on: RPMI-8226 leukemia

Structure (SMILES) | TGI (EKVX NSCLC) [µM] | TGI (OVCAR-5 ovarian) [µM] | TGI (NCI-H23 lung) [µM] | TGI (HCT-116 colon) [µM] | TGI (CAKI-1 renal) [µM] | TGI (NCI-H460 lung) [µM] | TGI (SK-MEL-28 melanoma) [µM] | TGI (SK-OV-3 ovarian) [µM] | TGI (HCC-2998 colon) [µM] | TGI (RPMI-8226 leukemia) [µM] | GI50 (EKVX NSCLC) [µM] | GI50 (OVCAR-5 ovarian) [µM] | GI50 (NCI-H23 lung) [µM] | GI50 (HCT-116 colon) [µM] | GI50 (CAKI-1 renal) [µM] | GI50 (NCI-H460 lung) [µM] | GI50 (SK-MEL-28 melanoma) [µM] | GI50 (SK-OV-3 ovarian) [µM] | GI50 (HCC-2998 colon) [µM] | GI50 (RPMI-8226 leukemia) [µM]
C=C(C)C1Cc2cc(C(C)=O)ccc2O1 (stereo not given) | > 100 | > 100 | > 100 | > 100 | > 100 | > 100 | > 100 | > 100 | > 100 | > 100 | – | – | – | – | – | – | – | – | – | –
CC(C)(C)CC(C)(C)c1cc2c(O)c(c1)Cc1cc(C(C)(C)CC(C)(C)C)cc(c1O)Cc1cc(C(C)(C)CC(C)(C)C)cc(c1O)Cc1cc(C(C)(C)CC(C)(C)C)cc(c1O)Cc1cc(C(C)(C)CC(C)(C)C)cc(c1O)Cc1cc(C(C)(C)CC(C)(C)C)cc(c1O)Cc1cc(C(C)(C)CC(C)(C)C)cc(c1O)Cc1cc(C(C)(C)CC(C)(C)C)cc(c1O)C2 | > 100 | > 100 | > 100 | > 100 | – | > 100 | > 100 | – | > 100 | > 100 | – | – | – | – | – | – | – | – | – | –
CC(=O)OCCC/C(=C/c1cc2ccccc2c2ccccc12)[N+](=O)[O-] | 3.67 | 3.11 | 3.27 | 2.8 | 2.51 | 3.14 | 2.99 | 7.38 | 3 | 5.74 | 1.42 | 1.68 | 1.57 | 1.48 | 1.21 | 1.71 | 1.64 | 2.56 | 1.64 | 1.27
CCSc1nc(N)c(C#N)c(-c2ccc(OC)c(OC)c2)c1C#N | > 50 | > 50 | > 50 | 47.5 | > 50 | 44.1 | > 50 | > 50 | > 50 | > 50 | 32.2 | > 50 | 40.3 | 16.4 | 16.6 | 13.8 | > 50 | 15.4 | 37.9 | 14.8
CC1=CC[C@@H]2C(=O)C=CC=C[C@H]12.[C-]#[O+].[C-]#[O+].[C-]#[O+].[Fe] | – | > 100 | > 100 | > 100 | – | > 100 | > 100 | > 100 | > 100 | > 100 | – | > 100 | > 100 | > 100 | – | > 100 | > 100 | > 100 | > 100 | > 100
COc1ccc(OC)c(-c2nc3sc(C)cn3c2/C=C2\C(=O)N(C)c3ccccc32)c1 | > 100 | > 100 | 59.3 | 37.1 | 65.4 | 44.2 | 43.6 | 71.4 | – | 40.2 | 32.2 | 44.9 | 24.4 | 18.6 | 23.8 | 18.7 | 19.8 | 28.4 | – | 13.1
CCOc1ccc2c(c1)[n+]([O-])c(-c1ccc([N+](=O)[O-])cc1)c(N)[n+]2[O-] | > 100 | > 100 | > 100 | > 100 | > 100 | > 100 | > 100 | > 100 | – | – | – | – | – | – | – | – | – | – | – | –
Cc1cccc(/C=N/N=C(\N)NO)n1 | > 100 | – | > 100 | > 100 | > 100 | > 100 | > 100 | > 100 | > 100 | – | – | – | – | – | – | – | – | – | – | –
CC(NNC(=S)N1CCN(c2ccccn2)CC1)c1cccc[n+]1[O-] (stereo not given) | > 100 | – | > 100 | 13.7 | > 100 | > 100 | > 100 | – | > 100 | – | – | – | – | – | – | – | – | – | – | –
COc1ccc2c(ccc3oc([N+](=O)[O-])cc32)c1 | – | 4.74 | 0.605 | 0.92 | 0.755 | 0.85 | 0.323 | 1.84 | 0.418 | 0.81 | – | 0.364 | 0.203 | 0.0487 | 0.128 | 0.181 | 0.118 | 0.231 | 0.177 | 0.247
COc1ccc(/C=N/C2=NNC(C)(c3ccccc3O)N2C(Cc2c[nH]c3ccccc23)C(=O)O)cc1 (stereo not given) | 10.8 | 19 | 8.61 | 10.2 | – | 8.51 | 8.41 | 14.5 | 13.3 | 7.65 | 1.96 | 3.06 | 2.28 | 2.52 | – | 2.55 | 2.67 | 2.85 | 3.53 | 2.14
COC(=O)CCC(=O)Nc1cc(C)ccc1C | > 100 | – | > 100 | > 100 | > 100 | > 100 | > 100 | > 100 | > 100 | > 100 | – | – | – | – | – | – | – | – | – | –
Cc1ccc(Nn2c(SCC(=O)Nc3nc(-c4ccccc4)cs3)nc(C)c2C)cc1 | 5.61 | > 100 | > 100 | 26.5 | 6.1 | 16.5 | – | > 100 | – | – | 1.39 | 17.2 | 3.42 | 2.82 | 1.86 | 3.88 | – | 10.6 | – | –
Cn1c(=O)c2[nH]c(CCS)nc2n(C)c1=O | > 100 | > 100 | > 100 | > 100 | > 100 | > 100 | > 100 | > 100 | – | > 100 | – | – | – | – | – | – | – | – | – | –
COc1ccc(-c2cncn2-c2ccc(-c3nc4cc(OC)c(OC)c(OC)c4s3)cc2)cc1N | > 100 | > 100 | > 100 | > 100 | > 100 | > 100 | > 100 | > 100 | – | – | 7.54 | > 100 | 4.76 | 3.78 | 4.82 | 4.69 | 13.7 | > 100 | – | –
COc1ccc(C#CC2=C(Br)C(=O)OC2)cc1 | 17 | 28.8 | 25.3 | 35.7 | 6.61 | > 50 | 23.3 | – | – | > 50 | 6.9 | 14.7 | 10.6 | 1.4 | 1.76 | 10 | 5.54 | – | – | 2.14
